Results on 1 compound are retold here after patent US10398788B2, “Polymer and contrast agent for photoacoustic imaging including the polymer” (CANON KABUSHIKI KAISHA, priority 2014, dated 2019).

The conditions of data set [1]: background art; cited from earlier work.
The nature of data set [2]: Photo-fading under near-infrared pulse laser irradiation. In kind it is physicochemical. Conditions: 4 irradiations. Here is the method:
With respect to each of Cy7-PMPC (58 k) represented by the formula (47), 700DX-PMPC (57 k) represented by the formula (48), 800CW-PMPC (57 k) represented by the formula (49) and 800RS-PMPC (57 k) represented by the formula (50) obtained in Examples 22, 23, 24 and 25, respectively, and ICG-PMPC (48 k) represented by formula (46) described in Example 12, 2.0 mL of a sample was prepared in which the concentration of each dye-bound PMPC was adjusted so that the absorbance at the maximum absorption wavelength was 0.15. A sample of single ICG as Comparative Example was also prepared. Herein, the irradiation wavelength of near-infrared pulse laser light by use of the PAT apparatus and the excitation wavelength in fluorescence spectrum measurement were set to be the maximum absorption wavelengths of each dye-bound PMPC and ICG. Herein, the excitation wavelengths and the fluorescence emission wavelengths of each dye-bound PMPC and ICG were summarized in FIG. 16. The amount of near-infrared pulse laser light was set to be 8 to 9 mJ at each wavelength, and irradiation at 120 points (detector position) per 20 times was defined as one irradiation and such irradiation was performed at most four times. […] The resultant sample was placed in a 100-μL cuvette, subjected to fluorescence spectrum measurement (FP-6300 manufactured by JASCO Corporation), and studied with respect to photo-fading. […]

`CC1(C)C(/C=C/C=C/C=C/C=C2/N(CCCCS(=O)(=O)[O-])c3ccc4ccccc4c3C2(C)C)=[N+](CCCCS(=O)(=O)[O-])c2ccc3ccccc3c21.[Na+]` [ICG, indocyanine green]: the Half-life in blood entry in data set [1] was “about several minutes”. In data set [2], the “Photo-fading: normalized fluorescent intensity remaining after laser irradiation” value is reported as “about 15%”.
